From patent US12281122B1, “PI3K inhibitors” (Cogent Biosciences, Inc., priority 2023, dated 2025)

Legend:
[1] = test system: T47D (PI3Kα-H1047R) cell line; test: HTRF phospho-AKT(S473) cell assay in T47D cells; type: cell-based, human; settings: Homo sapiens; HTRF phospho-AKT(S473), T47D (PI3Kα-H1047R) cells, 2 hours compound incubation
Summary of the method: (§1)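 pAKT(S473) in lysates read by HTRF after a 2 h, 37 °C compound exposure (12-point 1:3 series, max 0.5% DMSO). SKBR3 (wild type, top 10 μM) received 70 ng/ml PDGF-BB during the final 15 min; T47D (H1047R, top 5 μM) was unstimulated. IC50 values derived from the dose-response.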

[2] = test system: SKBR3 (PI3Kα-Wild Type) cell line; test: HTRF phospho-AKT(S473) cell assay in SKBR3 cells; type: cell-based, human; settings: Homo sapiens, SK-BR-3; HTRF phospho-AKT(S473), SKBR3 (PI3Kα-Wild Type) cells, 2 hours compound incubation, PDGF-BB stimulated
Summary of the method: as §1

SMILES | IC50 [1] [nM] | IC50 [2] [nM]
Cc1cc([C@@H](C)Nc2ccc(Cl)nc2C(=O)NS(C)(=O)=O)c2nc(-c3ccc4nc(C)oc4c3)n(C)c(=O)c2c1 [Compound 789, (R)-6-chloro-3-((1-(3,6-dimethyl-2-(2-methylbenzo[d]oxazol-6-yl)-4-oxo-3,4-dihydroquinazolin-8-yl)ethyl)amino)-N-(methylsulfonyl) picolinamide] | < 250 | 1000 to 5000
Cc1cc([C@@H](C)Nc2ccc(Cl)nc2C(=O)NS(C)(=O)=O)c2nc(-c3ccc(N4CCN(C)CC4)cc3)n(C)c(=O)c2c1 [Compound 790, (R)-6-chloro-3-((1-(3,6-dimethyl-2-(4-(4-methylpiperazin-1-yl)phenyl)-4-oxo-3,4-dihydroquinazolin-8-yl)ethyl)amino)-N-(methylsulfonyl) picolinamide] | < 250 | ≥ 5000
COCCn1ncc2cc(-c3nc4c([C@@H](C)Nc5ccc(Cl)nc5C(=O)NS(C)(=O)=O)cc(C)cc4c(=O)n3C)ccc21 [Compound 791, (R)-6-chloro-3-((1-(2-(1-(2-methoxyethyl)-1H-indazol-5-yl)-3,6-dimethyl-4-oxo-3,4-dihydroquinazolin-8-yl)ethyl)amino)-N-(methylsulfonyl) picolinamide] | < 250 | 1000 to 5000
Cc1cc([C@@H](C)Nc2ccc(Cl)nc2C(=O)NS(C)(=O)=O)c2nc(-c3ccc4nn(C5COC5)cc4c3)n(C)c(=O)c2c1 [Compound 792, (R)-6-chloro-3-((1-(3,6-dimethyl-2-(2-(oxetan-3-yl)-2H-indazol-5-yl)-4-oxo-3,4-dihydroquinazolin-8-yl)ethyl)amino)-N-(methylsulfonyl) picolinamide] | < 250 | 1000 to 5000
Cc1cc([C@@H](C)Nc2ccc(Cl)nc2C(=O)NS(C)(=O)=O)c2nc(-c3ccc(OCCN4CCOCC4)cc3)n(C)c(=O)c2c1 [Compound 793, (R)-6-chloro-3-((1-(3,6-dimethyl-2-(4-(2-morpholinoethoxy)phenyl)-4-oxo-3,4-dihydroquinazolin-8-yl)ethyl)amino)-N-(methylsulfonyl) picolinamide] | < 250 | ≥ 5000
Cc1cc([C@@H](C)Nc2ccc(Cl)nc2C(=O)NS(C)(=O)=O)c2nc(-c3ccc(-c4cnn(C)c4)c(F)c3)n(C)c(=O)c2c1 [Compound 794, (R)-6-chloro-3-((1-(2-(3-fluoro-4-(1-methyl-1H-pyrazol-4-yl)phenyl)-3,6-dimethyl-4-oxo-3,4-dihydroquinazolin-8-yl)ethyl)amino)-N-(methylsulfonyl) picolinamide] | < 250 | 1000 to 5000
Cc1cc([C@@H](C)Nc2ccc(Cl)nc2C(=O)NS(C)(=O)=O)c2nc(-c3ccc4nn(CC5CC5)cc4c3)n(C)c(=O)c2c1 [Compound 795, (R)-6-chloro-3-((1-(2-(2-(cyclopropylmethyl)-2H-indazol-5-yl)-3,6-dimethyl-4-oxo-3,4-dihydroquinazolin-8-yl)ethyl)amino)-N-(methylsulfonyl) picolinamide] | < 250 | 1000 to 5000
Cc1cc([C@@H](C)Nc2ccc(Cl)nc2C(=O)NS(C)(=O)=O)c2nc(-c3ccc4c(c3)CN(C)C4=O)n(C)c(=O)c2c1 [Compound 796, (R)-6-chloro-3-((1-(3,6-dimethyl-2-(2-methyl-1-oxoisoindolin-5-yl)-4-oxo-3,4-dihydroquinazolin-8-yl)ethyl)amino)-N-(methylsulfonyl) picolinamide] | < 250 | 1000 to 5000
Cc1cc([C@@H](C)Nc2ccc(Cl)nc2C(=O)NS(C)(=O)=O)c2nc(-c3ccc4nn(CCO)cc4c3)n(C)c(=O)c2c1 [Compound 797, (R)-6-chloro-3-((1-(2-(2-(2-hydroxyethyl)-2H-indazol-5-yl)-3,6-dimethyl-4-oxo-3,4-dihydroquinazolin-8-yl)ethyl)amino)-N-(methylsulfonyl) picolinamide] | < 250 | 1000 to 5000
Cc1cc([C@@H](C)Nc2ccc(Cl)nc2C(=O)NS(C)(=O)=O)c2nc(-c3ccc4nn(C)cc4c3C)n(C)c(=O)c2c1 [Compound 798, (R)-6-chloro-3-((1-(2-(2,4-dimethyl-2H-indazol-5-yl)-3,6-dimethyl-4-oxo-3,4-dihydroquinazolin-8-yl)ethyl)amino)-N-(methylsulfonyl) picolinamide] | < 250 | 1000 to 5000
Cc1cc([C@@H](C)Nc2ccc(Cl)nc2C(=O)NS(C)(=O)=O)c2nc(-c3ccc(-c4ncc(C#N)cc4C)c(F)c3)n(C)c(=O)c2c1 [Compound 799, (R)-6-chloro-3-((1-(2-(4-(5-cyano-3-methylpyridin-2-yl)-3-fluorophenyl)-3,6-dimethyl-4-oxo-3,4-dihydroquinazolin-8-yl)ethyl)amino)-N-(methylsulfonyl) picolinamide] | 250 to 500 | ≥ 5000
CC(=O)N1CCN(c2cc(F)c(-c3nc4c([C@@H](C)Nc5ccc(Cl)nc5C(=O)NS(C)(=O)=O)cc(C)cc4c(=O)n3C)cc2F)CC1 [Compound 800, (R)-3-((1-(2-(4-(4-acetylpiperazin-1-yl)-2,5-difluorophenyl)-3,6-dimethyl-4-oxo-3,4-dihydroquinazolin-8-yl)ethyl)amino)-6-chloro-N-(methylsulfonyl) picolinamide] | < 250 | 1000 to 5000
CC(=O)N1CC2CCC(C1)N2c1ccc(-c2nc3c([C@@H](C)Nc4ccc(Cl)nc4C(=O)NS(C)(=O)=O)cc(C)cc3c(=O)n2C)cc1F [Compound 801, 3-(((1R)-1-(2-(4-(3-acetyl-3,8-diazabicyclo[3.2.1]octan-8-yl)-3-fluorophenyl)-3,6-dimethyl-4-oxo-3,4-dihydroquinazolin-8-yl)ethyl)amino)-6-chloro-N-(methylsulfonyl) picolinamide] | < 250 | ≥ 5000
Cc1cc([C@@H](C)Nc2ccc(Cl)nc2C(=O)NS(C)(=O)=O)c2nc(-c3ccc(-c4cn(C)cn4)cc3)n(C)c(=O)c2c1 [Compound 802, (R)-6-chloro-3-((1-(3,6-dimethyl-2-(4-(1-methyl-1H-imidazol-4-yl)phenyl)-4-oxo-3,4-dihydroquinazolin-8-yl)ethyl)amino)-N-(methylsulfonyl) picolinamide] | < 250 | 1000 to 5000
CC(=O)N1CCN(c2ccc(-c3nc4c([C@@H](C)Nc5ccc(Cl)nc5C(=O)NS(C)(=O)=O)cc(C)cc4c(=O)n3C)cc2F)CC1(C)C [Compound 804, (R)-3-((1-(2-(4-(4-acetyl-3,3-dimethylpiperazin-1-yl)-3-fluorophenyl)-3,6-dimethyl-4-oxo-3,4-dihydroquinazolin-8-yl)ethyl)amino)-6-chloro-N-(methylsulfonyl) picolinamide] | < 250 | ≥ 5000
C[C@@H](Nc1ccc(Cl)nc1C(=O)NS(C)(=O)=O)c1cc(F)cc2c(=O)n(C)c(-c3ccc4nn(C)cc4c3)nc12 [Compound 805, (R)-6-chloro-3-((1-(6-fluoro-3-methyl-2-(2-methyl-2H-indazol-5-yl)-4-oxo-3,4-dihydroquinazolin-8-yl)ethyl)amino)-N-(methylsulfonyl) picolinamide] | 250 to 500 | 1000 to 5000
Cc1cc([C@@H](C)Nc2ccc(Cl)nc2C(=O)NS(C)(=O)=O)c2nc(-c3ccc(Nc4cnn(C)c4)c(F)c3)n(C)c(=O)c2c1 [Compound 806, (R)-6-chloro-3-((1-(2-(3-fluoro-4-((1-methyl-1H-pyrazol-4-yl)amino)phenyl)-3,6-dimethyl-4-oxo-3,4-dihydroquinazolin-8-yl)ethyl)amino)-N-(methylsulfonyl) picolinamide] | < 250 | 1000 to 5000
